Assay results taken from PMC7982320 (Pharmacology Research & Perspectives, 2021).
“And” between values parts separate entries of the source, which are not always exact repeats. Equal entries are not always repeated. “Also recorded” adds a separate entry of the source. Where two headings read alike, the source gives them in different places.

Assays:
Assay type in all cases: in vitro ADME
human MATE2‐K = human MATE2‐K (Homo sapiens, UniProt Q86VL8); assay: Transporter inhibition, uptake assay
CYP1A2 = CYP1A2 (Homo sapiens, UniProt P05177); conditions: read-out: IC50, No preincubation; CYP1A2, pooled HLMs, n = 3
CYP2C19 = CYP2C19 (Homo sapiens, UniProt P33261); assay: CYP inhibition in pooled human liver microsomes, S-mephenytoin probe
CYP3A4 = CYP3A4 (Homo sapiens, UniProt P08684); assay: CYP inhibition in pooled human liver microsomes, midazolam or testosterone probe; conditions: for IC50: read-out: IC50, No preincubation, pooled HLMs, n = 3
human OATP1B1 = target: T1, human OATP1B1 (Homo sapiens, UniProt Q9Y6L6); assay: Transporter inhibition, uptake assay
T1 sequence (Q9Y6L6 1-691): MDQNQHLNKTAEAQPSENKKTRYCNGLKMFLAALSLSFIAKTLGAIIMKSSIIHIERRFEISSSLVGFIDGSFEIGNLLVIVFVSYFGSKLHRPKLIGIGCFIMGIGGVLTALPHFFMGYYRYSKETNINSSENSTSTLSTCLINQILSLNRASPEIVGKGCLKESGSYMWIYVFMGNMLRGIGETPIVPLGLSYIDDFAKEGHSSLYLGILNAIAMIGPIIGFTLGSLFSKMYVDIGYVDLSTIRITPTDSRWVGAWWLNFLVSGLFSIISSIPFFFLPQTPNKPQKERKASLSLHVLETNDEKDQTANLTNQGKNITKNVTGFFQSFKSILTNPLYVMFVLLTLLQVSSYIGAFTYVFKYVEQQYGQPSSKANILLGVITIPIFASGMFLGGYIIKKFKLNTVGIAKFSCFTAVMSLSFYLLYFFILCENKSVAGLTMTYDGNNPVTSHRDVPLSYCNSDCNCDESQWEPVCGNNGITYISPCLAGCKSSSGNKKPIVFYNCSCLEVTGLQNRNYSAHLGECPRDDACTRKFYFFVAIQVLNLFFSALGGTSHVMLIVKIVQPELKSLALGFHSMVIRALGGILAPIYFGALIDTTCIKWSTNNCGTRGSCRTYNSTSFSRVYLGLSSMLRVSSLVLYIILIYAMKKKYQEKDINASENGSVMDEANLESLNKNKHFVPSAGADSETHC

human OCT1 = human OCT1 (Homo sapiens, UniProt O15245); assay: Transporter inhibition, uptake assay
human MDR1 = human MDR1 (Homo sapiens, UniProt P08183); assay: Transporter inhibition, vesicular transport assay
human MATE1 = target: T2, human MATE1 (Homo sapiens, UniProt Q96FL8); assay: Transporter inhibition, uptake assay
T2 sequence (Q96FL8 1-570): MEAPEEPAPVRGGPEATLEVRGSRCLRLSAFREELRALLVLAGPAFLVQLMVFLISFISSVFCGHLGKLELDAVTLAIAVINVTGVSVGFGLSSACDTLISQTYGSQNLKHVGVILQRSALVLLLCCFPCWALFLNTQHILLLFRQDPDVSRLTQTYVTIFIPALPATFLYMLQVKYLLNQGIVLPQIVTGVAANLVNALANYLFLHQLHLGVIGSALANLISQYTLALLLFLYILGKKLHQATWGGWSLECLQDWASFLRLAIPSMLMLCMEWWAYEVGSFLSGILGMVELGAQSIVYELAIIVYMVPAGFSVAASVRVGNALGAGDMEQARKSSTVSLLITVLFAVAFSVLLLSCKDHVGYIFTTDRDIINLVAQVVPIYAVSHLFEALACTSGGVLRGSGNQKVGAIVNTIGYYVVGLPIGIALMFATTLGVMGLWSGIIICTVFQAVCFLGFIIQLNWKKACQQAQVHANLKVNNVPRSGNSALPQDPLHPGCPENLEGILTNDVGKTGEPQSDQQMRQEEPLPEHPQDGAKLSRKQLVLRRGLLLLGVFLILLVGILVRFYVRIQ

human OCT2 = target: T3, human OCT2 (Homo sapiens, UniProt O15244); assay: Transporter inhibition, uptake assay
T3 sequence (O15244 1-555): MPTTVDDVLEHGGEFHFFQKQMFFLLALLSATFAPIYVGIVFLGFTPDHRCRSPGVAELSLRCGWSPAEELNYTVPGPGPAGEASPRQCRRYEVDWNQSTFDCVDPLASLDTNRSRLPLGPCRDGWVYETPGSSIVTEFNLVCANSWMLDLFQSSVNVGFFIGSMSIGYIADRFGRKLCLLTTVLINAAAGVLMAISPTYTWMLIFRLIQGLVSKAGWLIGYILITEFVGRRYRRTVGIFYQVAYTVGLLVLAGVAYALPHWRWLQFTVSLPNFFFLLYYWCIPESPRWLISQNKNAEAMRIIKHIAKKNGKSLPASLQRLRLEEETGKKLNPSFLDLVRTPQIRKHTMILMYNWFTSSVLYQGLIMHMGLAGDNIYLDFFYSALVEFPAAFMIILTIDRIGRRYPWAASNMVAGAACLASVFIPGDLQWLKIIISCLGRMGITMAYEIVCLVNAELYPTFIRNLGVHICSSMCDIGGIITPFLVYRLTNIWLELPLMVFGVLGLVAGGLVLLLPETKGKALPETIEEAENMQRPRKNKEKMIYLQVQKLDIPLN

CYP3A4, sequence (P08684 whole entry): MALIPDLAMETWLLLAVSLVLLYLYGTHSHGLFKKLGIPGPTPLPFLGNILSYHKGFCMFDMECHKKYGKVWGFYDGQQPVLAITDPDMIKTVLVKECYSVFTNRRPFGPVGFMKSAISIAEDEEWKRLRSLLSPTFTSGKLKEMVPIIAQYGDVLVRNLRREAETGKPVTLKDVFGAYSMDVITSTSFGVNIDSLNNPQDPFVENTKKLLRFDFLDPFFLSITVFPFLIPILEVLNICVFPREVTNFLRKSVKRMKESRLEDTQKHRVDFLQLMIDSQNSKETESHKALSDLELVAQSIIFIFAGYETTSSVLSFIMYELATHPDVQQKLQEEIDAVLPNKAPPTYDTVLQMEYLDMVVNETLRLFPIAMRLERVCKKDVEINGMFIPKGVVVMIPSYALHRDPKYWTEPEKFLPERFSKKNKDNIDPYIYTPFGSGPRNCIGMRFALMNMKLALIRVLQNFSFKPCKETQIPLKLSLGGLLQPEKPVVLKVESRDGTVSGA
human OCT1, sequence (O15245 whole entry): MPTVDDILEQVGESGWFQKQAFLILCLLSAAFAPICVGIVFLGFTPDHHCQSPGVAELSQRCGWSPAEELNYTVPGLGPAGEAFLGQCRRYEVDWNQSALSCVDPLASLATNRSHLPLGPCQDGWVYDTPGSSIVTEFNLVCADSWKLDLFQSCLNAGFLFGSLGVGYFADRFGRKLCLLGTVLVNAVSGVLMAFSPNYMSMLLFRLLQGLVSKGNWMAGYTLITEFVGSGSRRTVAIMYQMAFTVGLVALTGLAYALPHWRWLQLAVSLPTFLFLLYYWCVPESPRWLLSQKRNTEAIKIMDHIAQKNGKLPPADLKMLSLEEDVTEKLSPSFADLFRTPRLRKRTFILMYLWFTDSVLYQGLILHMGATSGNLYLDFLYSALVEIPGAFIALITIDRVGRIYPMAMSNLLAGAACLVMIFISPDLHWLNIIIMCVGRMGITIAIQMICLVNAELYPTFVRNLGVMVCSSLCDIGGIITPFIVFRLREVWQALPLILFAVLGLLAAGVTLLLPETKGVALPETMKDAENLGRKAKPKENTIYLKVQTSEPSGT
human MATE2‐K, sequence (Q86VL8 1-566 isoform Q86VL8-3): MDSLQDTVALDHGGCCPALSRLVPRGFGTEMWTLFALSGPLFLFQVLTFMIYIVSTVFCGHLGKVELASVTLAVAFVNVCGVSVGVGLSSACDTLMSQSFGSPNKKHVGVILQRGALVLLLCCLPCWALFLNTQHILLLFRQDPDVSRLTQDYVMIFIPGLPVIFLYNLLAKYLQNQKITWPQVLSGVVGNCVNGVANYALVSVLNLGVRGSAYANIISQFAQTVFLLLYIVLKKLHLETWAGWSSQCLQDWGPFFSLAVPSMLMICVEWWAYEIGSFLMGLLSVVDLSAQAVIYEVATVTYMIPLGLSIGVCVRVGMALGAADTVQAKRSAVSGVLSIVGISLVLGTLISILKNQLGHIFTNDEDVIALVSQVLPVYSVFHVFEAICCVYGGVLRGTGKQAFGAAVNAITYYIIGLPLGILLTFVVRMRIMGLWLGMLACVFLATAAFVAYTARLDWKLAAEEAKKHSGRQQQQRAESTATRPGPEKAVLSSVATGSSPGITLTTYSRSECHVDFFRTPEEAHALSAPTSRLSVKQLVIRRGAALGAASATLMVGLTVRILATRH
CYP2C19, sequence (P33261 whole entry): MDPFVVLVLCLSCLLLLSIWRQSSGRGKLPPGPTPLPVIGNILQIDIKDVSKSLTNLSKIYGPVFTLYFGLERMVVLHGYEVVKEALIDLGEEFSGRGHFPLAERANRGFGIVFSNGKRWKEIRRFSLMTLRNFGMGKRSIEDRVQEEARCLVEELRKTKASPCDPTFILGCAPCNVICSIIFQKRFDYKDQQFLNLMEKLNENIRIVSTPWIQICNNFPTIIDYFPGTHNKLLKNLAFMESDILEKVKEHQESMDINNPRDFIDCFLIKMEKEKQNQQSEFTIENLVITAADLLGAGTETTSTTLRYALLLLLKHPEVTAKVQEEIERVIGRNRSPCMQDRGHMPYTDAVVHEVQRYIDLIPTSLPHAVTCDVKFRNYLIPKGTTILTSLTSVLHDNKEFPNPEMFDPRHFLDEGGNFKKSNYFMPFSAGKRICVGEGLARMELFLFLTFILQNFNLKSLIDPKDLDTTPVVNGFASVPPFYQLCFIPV
human MDR1, sequence (P08183 whole entry): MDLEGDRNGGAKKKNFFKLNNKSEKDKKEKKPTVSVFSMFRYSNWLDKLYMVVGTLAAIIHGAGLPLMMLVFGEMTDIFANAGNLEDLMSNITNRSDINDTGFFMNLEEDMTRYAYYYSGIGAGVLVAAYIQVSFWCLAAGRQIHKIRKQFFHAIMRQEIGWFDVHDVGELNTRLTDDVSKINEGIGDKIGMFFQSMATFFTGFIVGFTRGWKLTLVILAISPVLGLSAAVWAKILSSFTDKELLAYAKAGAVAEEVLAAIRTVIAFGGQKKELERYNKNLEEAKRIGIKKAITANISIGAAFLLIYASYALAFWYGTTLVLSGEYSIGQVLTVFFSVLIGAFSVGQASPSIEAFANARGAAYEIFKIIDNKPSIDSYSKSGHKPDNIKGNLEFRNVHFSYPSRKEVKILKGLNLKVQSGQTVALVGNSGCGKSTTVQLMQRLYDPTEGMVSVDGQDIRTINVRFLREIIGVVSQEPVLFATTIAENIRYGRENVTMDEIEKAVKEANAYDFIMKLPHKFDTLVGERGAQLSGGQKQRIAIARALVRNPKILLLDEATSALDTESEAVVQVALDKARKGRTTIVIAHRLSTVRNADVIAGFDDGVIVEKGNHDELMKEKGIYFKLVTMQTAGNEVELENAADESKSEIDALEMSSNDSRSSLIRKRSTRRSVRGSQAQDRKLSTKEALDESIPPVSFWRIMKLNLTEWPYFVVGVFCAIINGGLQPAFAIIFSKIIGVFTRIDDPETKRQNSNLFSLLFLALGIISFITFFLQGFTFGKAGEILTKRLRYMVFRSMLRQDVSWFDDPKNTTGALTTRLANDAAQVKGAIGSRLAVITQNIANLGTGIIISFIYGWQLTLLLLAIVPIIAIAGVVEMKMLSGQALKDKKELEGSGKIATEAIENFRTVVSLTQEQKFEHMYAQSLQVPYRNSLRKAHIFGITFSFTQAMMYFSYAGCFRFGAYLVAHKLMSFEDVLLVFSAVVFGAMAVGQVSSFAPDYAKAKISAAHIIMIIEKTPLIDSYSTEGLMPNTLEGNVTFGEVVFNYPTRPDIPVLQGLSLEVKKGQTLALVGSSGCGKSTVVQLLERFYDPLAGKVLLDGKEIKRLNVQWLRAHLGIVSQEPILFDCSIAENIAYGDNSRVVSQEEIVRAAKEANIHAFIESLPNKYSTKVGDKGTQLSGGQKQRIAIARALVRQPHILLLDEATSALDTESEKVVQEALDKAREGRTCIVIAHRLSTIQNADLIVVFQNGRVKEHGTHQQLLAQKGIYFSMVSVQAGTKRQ
CYP1A2, sequence (P05177 whole entry): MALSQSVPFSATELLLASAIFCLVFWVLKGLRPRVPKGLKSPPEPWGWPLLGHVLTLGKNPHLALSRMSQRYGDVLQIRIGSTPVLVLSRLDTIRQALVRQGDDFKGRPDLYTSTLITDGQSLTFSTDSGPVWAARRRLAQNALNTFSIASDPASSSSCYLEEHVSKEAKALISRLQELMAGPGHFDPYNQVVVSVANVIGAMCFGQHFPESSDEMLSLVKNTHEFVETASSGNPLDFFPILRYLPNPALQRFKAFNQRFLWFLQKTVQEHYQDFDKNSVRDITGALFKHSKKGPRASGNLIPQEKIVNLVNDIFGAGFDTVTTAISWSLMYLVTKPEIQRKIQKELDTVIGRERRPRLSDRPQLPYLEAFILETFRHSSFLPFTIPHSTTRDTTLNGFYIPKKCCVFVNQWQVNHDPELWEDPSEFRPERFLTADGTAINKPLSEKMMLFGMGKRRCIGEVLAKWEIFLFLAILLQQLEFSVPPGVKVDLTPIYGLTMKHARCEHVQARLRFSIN

CC1=N[C@]2(C(=O)CO)[C@@H](C[C@H]3[C@@H]4C[C@@H](O)C5=CC(=O)C=C[C@]5(C)[C@H]4[C@@H](O)C[C@@]32C)O1 [6β‐OH‐21‐desDFZ, 6β‐Hydroxy‐21‐desacetyl deflazacort]
Maximum inhibition at 50 µM (human MATE2‐K; MATE2‐K UPT, n = 3): 26 % of control
inhibitory interaction with transporter (human MATE2‐K; MATE2‐K, up to 50 µM): no inhibitory interaction
IC50 (CYP1A2): > 50 µM
estimated plasma Cmax/IC50 ratio (CYP2C19; CYP2C19, Cmax 0.34 µM, assumed 100% free): 0.007
IC50 (CYP2C19; read-out: IC50, No preincubation, CYP2C19, pooled HLMs, n = 3): ~50 µM
estimated plasma Cmax/IC50 ratio (CYP3A4; CYP3A4, Cmax 0.34 µM, assumed 100% free): 0.01
IC50 (CYP3A4; CYP3A4 (Midazolam)): ~35 µM and ≥ 20 µM
IC50 (CYP3A4; CYP3A4 (Midazolam), listed as 6β‐hydroxy‐21‐desacetyl deflazacort): 35 µM
IC50 (CYP3A4; CYP3A4 (Testosterone)): > 50 µM
estimated plasma Cmax/IC50 ratio (human OATP1B1; OATP1B1, Cmax 0.34 µM, assumed 100% free): 0.009
Maximum inhibition at 50 µM (human OATP1B1; OATP1B1 UPT, n = 3): 67 % of control
IC50 (human OATP1B1; OATP1B1 UPT, brackets: 95% confidence interval): 36.7 µM
inhibitory interaction with transporter (human OCT1; OCT1, up to 50 µM): no inhibitory interaction
Maximum inhibition at 50 µM (human OCT1; OCT1 UPT, n = 3): 23 % of control
estimated plasma Cmax/IC50 ratio (human MDR1; MDR1, Cmax 0.34 µM, assumed 100% free): 0.017
Maximum inhibition at 50 µM (human MDR1; MDR1 VT, n = 3): 78 % of control
inhibitory interaction with transporter (human MATE1; MATE1, up to 50 µM): no inhibitory interaction
Maximum inhibition at 50 µM (human MATE1; MATE1 UPT, n = 3): 26 % of control
inhibitory interaction with transporter (human OCT2; OCT2, up to 50 µM): did not show interaction; also recorded: no inhibitory interaction
Maximum inhibition at 50 µM (human OCT2; OCT2 UPT, n = 3): <20 % of control
